From patent US8785462B2, “5-hydroxypyrimidine-4-carboxamide derivative” (Daiichi Sankyo Company, Limited, priority 2009, dated 2014)

Tested on: human liver cancer-derived cell line Hep3B
Experiment: In vitro erythropoietin (EPO) induction activity in Hep3B cells (human EPO ELISA of culture supernatant)
Type: cell-based
Conditions: test compound 12.5 μM, Hep3B cells cultured 24 hours at 37° C., multiple of the EPO concentration in the control (0.5% DMSO = 1)
Protocol: In vitro erythropoietin (EPO) induction activity of test compounds was evaluated using human liver cancer-derived cell line Hep3B (ATCC, Manassas, Va.). Hep3B cells were cultured overnight at 37° C. in Dulbecco's modified Eagle's medium (DMEM) in the presence of 10% fetal bovine serum (FBS) (24-well plate, 1.0×10^5 cells/well). After replacing with fresh DMEM (+10% FBS) containing a test compound dissolved in 0.5% dimethyl sulfoxide (DMSO) (prepared to a concentration of 12.5 μM) or a solvent control (0.5% DMSO), the cells were cultured for 24 hours at 37° C. After recovering the culture supernatant, EPO concentration in the culture supernatant was quantified using a human EPO ELISA kit (StemCell Technologies).
The EPO concentration in the case of using a compound of each example as a test compound was expressed as a multiple of the EPO concentration in the control.

| Structure (SMILES) | fold induction at 12.5 µM |
| --- | --- |
| Cc1nc(CC2CCN(c3ccc(-c4ccc(CO)cc4)cc3)CC2)nc(C(=O)NCC(=O)O)c1O [Example 1, ({[5-Hydroxy-2-{(1-[4′-(hydroxymethyl)biphenyl-4-yl]piperidin-4-yl}methyl)-6-methylpyrimidin-4-yl]carbonyl}amino)acetic acid] | 55 |
| Cc1nc(CC2CCN(c3ccc(-c4ccc(C(C)O)cc4)cc3)CC2)nc(C(=O)NCC(=O)O)c1O (stereo not drawn) [Example 3, ({[5-Hydroxy-2-{(1-[4′-(1-hydroxyethyl)biphenyl-4-yl]piperidin-4-yl}methyl)-6-methylpyrimidin-4-yl]carbonyl}amino)acetic acid] | 24 |
| Cc1nc(CC2CCN(c3ccc(-c4ccc(CCO)cc4)cc3)CC2)nc(C(=O)NCC(=O)O)c1O [Example 4, ({[5-Hydroxy-2-({1-[4′-(2-hydroxyethyl)biphenyl-4-yl]piperidin-4-yl}methyl)-6-methylpyrimidin-4-yl]carbonyl}amino)acetic acid] | 73 |
| Cc1nc(CC2CCN(c3ccc(-c4ccc(CC(C)O)cc4)cc3)CC2)nc(C(=O)NCC(=O)O)c1O (stereo not drawn) [Example 5, ({[5-Hydroxy-2-{(1-[4′-(2-hydroxypropyl)biphenyl-4-yl]piperidin-4-yl}methyl)-6-methylpyrimidin-4-yl]carbonyl}amino)acetic acid] | 48 |
| Cc1nc(CC2CCN(c3ccc(-c4ccc(C(C)(C)CO)cc4)cc3)CC2)nc(C(=O)NCC(=O)O)c1O [Example 6, ({[5-Hydroxy-2-{(1-[4′-(2-hydroxy-1,1-dimethylethyl)biphenyl-4-yl]piperidin-4-yl}methyl)-6-methylpyrimidin-4-yl]carbonyl}amino)acetic acid] | 36 |
| Cc1nc(CC2CCN(c3ccc(-c4ccc(C(=O)N(C)C)cc4)cc3)CC2)nc(C(=O)NCC(=O)O)c1O [Example 7, ({[2-{(1-[4′-(Dimethylcarbamoyl)biphenyl-4-yl]piperidin-4-yl}methyl)-5-hydroxy-6-methylpyrimidin-4-yl]carbonyl}amino)acetic acid] | 50 |
| CNC(=O)c1ccc(-c2ccc(N3CCC(Cc4nc(C)c(O)c(C(=O)NCC(=O)O)n4)CC3)cc2)cc1 [Example 8, ({[5-Hydroxy-6-methyl-2-{(1-[4′-(methylcarbamoyl)biphenyl-4-yl]piperidin-4-yl}methyl)pyrimidin-4-yl]carbonyl}amino)acetic acid] | 94 |
| Cc1nc(CC2CCN(c3ccc(-c4ccc(CC(=O)N(C)C)cc4)cc3)CC2)nc(C(=O)NCC(=O)O)c1O [Example 9, [({2-[(1-{4′-[2-(Dimethylamino)-2-oxoethyl]biphenyl-4-yl}piperidin-4-yl)methyl]-5-hydroxy-6-methylpyrimidin-4-yl}carbonyl)amino]acetic acid] | 36 |
| CCOC(=O)c1ccc(-c2ccc(N3CCC(Cc4nc(C)c(O)c(C(=O)NCC(=O)O)n4)CC3)cc2)nc1 [Example 16, [({2-[(1-{4-[5-(Ethoxycarbonyl)pyridin-2-yl]phenyl}piperidin-4-yl)methyl]-5-hydroxy-6-methylpyrimidin-4-yl}carbonyl)amino]acetic acid] | 47 |
| Cc1nc(CC2CCN(c3ccc(-c4ccc(CC(C)O)cc4)cn3)CC2)nc(C(=O)NCC(=O)O)c1O (stereo not drawn) [Example 20, [({5-Hydroxy-2-[(1-{5-[4-(2-hydroxypropyl)phenyl]pyridin-2-yl}piperidin-4-yl)methyl]-6-methylpyrimidin-4-yl}carbonyl)amino]acetic acid] | 11 |
| Cc1nc(CC2CCN(c3ccc(-c4ccc(CO)c(Cl)c4)cc3)CC2)nc(C(=O)NCC(=O)O)c1O [Example 24, ({[2-{(1-[3′-Chloro-4′-(hydroxymethyl)biphenyl-4-yl]piperidin-4-yl}methyl)-5-hydroxy-6-methylpyrimidin-4-yl]carbonyl}amino)acetic acid] | 30 |
| Cc1cc(CO)ccc1-c1ccc(N2CCC(Cc3nc(C)c(O)c(C(=O)NCC(=O)O)n3)CC2)cc1 [Example 25, ({[5-Hydroxy-2-{(1-[4′-(hydroxymethyl)-2′-methylbiphenyl-4-yl]piperidin-4-yl}methyl)-6-methylpyrimidin-4-yl]carbonyl}amino)acetic acid] | 22 |
| Cc1cc(-c2ccc(N3CCC(Cc4nc(C)c(O)c(C(=O)NCC(=O)O)n4)CC3)cc2C)ccc1CO [Example 26, ({[5-Hydroxy-2-({1-[4′-(hydroxymethyl)-2,3′-dimethylbiphenyl-4-yl]piperidin-4-yl}methyl)-6-methylpyrimidin-4-yl]carbonyl}amino)acetic acid] | 13 |
| CCC(O)Cc1ccc(-c2ccc(N3CCC(Cc4nc(C)c(O)c(C(=O)NCC(=O)O)n4)CC3)cc2)cc1 (stereo not drawn) [Example 27, ({[5-Hydroxy-2-{(1-[4′-(2-hydroxybutyl)biphenyl-4-yl]piperidin-4-yl}methyl)-6-methylpyrimidin-4-yl]carbonyl}amino)acetic acid] | 30 |
| Cc1nc(CC2CCN(c3ccc(-c4ccc(C(F)(F)CO)cc4)cc3)CC2)nc(C(=O)NCC(=O)O)c1O [Example 30, ({[2-{(1-[4′-(1,1-Difluoro-2-hydroxyethyl)biphenyl-4-yl]piperidin-4-yl}methyl)-5-hydroxy-6-methylpyrimidin-4-yl]carbonyl}amino)acetic acid] | 23 |
| COCc1ccc(-c2ccc(N3CCC(Cc4nc(C)c(O)c(C(=O)NCC(=O)O)n4)CC3)cc2)cc1 [Example 35, ({[5-Hydroxy-2-{(1-[4′-(methoxymethyl)biphenyl-4-yl]piperidin-4-yl}methyl)-6-methylpyrimidin-4-yl]carbonyl}amino)acetic acid] | 53 |
| Cc1nc(CC2CCN(c3ccc(-c4ccc(CO)cc4F)cc3)CC2)nc(C(=O)NCC(=O)O)c1O [Example 36, ({[2-{(1-[2′-Fluoro-4′-(hydroxymethyl)biphenyl-4-yl]piperidin-4-yl}methyl)-5-hydroxy-6-methylpyrimidin-4-yl]carbonyl}amino)acetic acid] | 25 |
| Cc1nc(CC2CCN(c3ccc(-c4ccc(CO)c(F)c4)cc3)CC2)nc(C(=O)NCC(=O)O)c1O [Example 37, ({[2-({1-[3′-Fluoro-4′-(hydroxymethyl)biphenyl-4-yl]piperidin-4-yl}methyl)-5-hydroxy-6-methylpyrimidin-4-yl]carbonyl}amino)acetic acid] | 31 |
| Cc1nc(CC2CCN(c3ccc(-c4ccc(CO)cc4)c(F)c3)CC2)nc(C(=O)NCC(=O)O)c1O [Example 38, ({[2-({1-[2-Fluoro-4′-(hydroxymethyl)biphenyl-4-yl]piperidin-4-yl}methyl)-5-hydroxy-6-methylpyrimidin-4-yl]carbonyl}amino)acetic acid] | 24 |
| Cc1nc(CC2CCN(c3ccc(-c4ccc(CO)cc4)cc3F)CC2)nc(C(=O)NCC(=O)O)c1O [Example 39, ({[2-{(1-[3-Fluoro-4′-(hydroxymethyl)biphenyl-4-yl]piperidin-4-yl}methyl)-5-hydroxy-6-methylpyrimidin-4-yl]carbonyl}amino)acetic acid] | 18 |
| Cc1cc(-c2ccc(N3CCC(Cc4nc(C)c(O)c(C(=O)NCC(=O)O)n4)CC3)cc2)ccc1CO [Example 40, ({[5-Hydroxy-2-({1-[4′-(hydroxymethyl)-3′-methylbiphenyl-4-yl]piperidin-4-yl}methyl)-6-methylpyrimidin-4-yl]carbonyl}amino)acetic acid] | 25 |
| Cc1nc(CC2CCN(c3ccc(-c4cc(F)c(CO)c(F)c4)cc3)CC2)nc(C(=O)NCC(=O)O)c1O [Example 41, ({[2-({1-[3′,5′-Difluoro-4′-(hydroxymethyl)biphenyl-4-yl]piperidin-4-yl}methyl)-5-hydroxy-6-methylpyrimidin-4-yl]carbonyl}amino)acetic acid] | 20 |
| Cc1nc(CC2CCN(c3ccc(-c4cc(Cl)c(CO)c(Cl)c4)cc3)CC2)nc(C(=O)NCC(=O)O)c1O [Example 42, ({[2-{(1-[3′,5′-Dichloro-4′-(hydroxymethyl)biphenyl-4-yl]piperidin-4-yl}methyl)-5-hydroxy-6-methylpyrimidin-4-yl]carbonyl}amino)acetic acid] | 28 |
| [2H]C([2H])(O)c1ccc(-c2ccc(N3CCC(Cc4nc(C)c(O)c(C(=O)NCC(=O)O)n4)CC3)cc2)cc1 [Example 44, ({[5-Hydroxy-2-{(1-[4′-(hydroxymethyl)biphenyl-4-yl]piperidin-4-yl}methyl)-6-methylpyrimidin-4-yl]carbonyl}amino)acetic acid-d2] | 26 |
| Cc1nc(CC2CCN(c3ccc(-c4ccc(C[C@H](C)O)cc4)cc3)CC2)nc(C(=O)NCC(=O)O)c1O [Example 45, [({5-Hydroxy-2-[(1-{4′-[(2S)-2-hydroxypropyl]biphenyl-4-yl}piperidin-4-yl)methyl]-6-methylpyrimidin-4-yl}carbonyl)amino]acetic acid] | 41 |
| Cc1nc(CC2CCN(c3ccc(-c4ccc(C[C@@H](C)O)cc4)cc3)CC2)nc(C(=O)NCC(=O)O)c1O [Example 46, [({5-Hydroxy-2-[(1-{4′-[(2R)-2-hydroxypropyl]biphenyl-4-yl}piperidin-4-yl)methyl]-6-methylpyrimidin-4-yl}carbonyl)amino]acetic acid] | 45 |
| CC[C@H](O)Cc1ccc(-c2ccc(N3CCC(Cc4nc(C)c(O)c(C(=O)NCC(=O)O)n4)CC3)cc2)cc1 [Example 47, [({5-Hydroxy-2-[(1-{4′-[(2S)-2-hydroxybutyl]biphenyl-4-yl}piperidin-4-yl)methyl]-6-methylpyrimidin-4-yl}carbonyl)amino]acetic acid] | 34 |
